Measurements reported in patent US20100069407A1, “CXCR2 inhibitors” (priority 2006, published 2010).

Molecular target: T1, human CXCR2 receptor (Homo sapiens, UniProt P25025)
T1 construct: purchased Biosignal Packard Inc; host or cells: Chinese hamster ovary cell (CHO-K1) membranes
T1 sequence (P25025 1-360): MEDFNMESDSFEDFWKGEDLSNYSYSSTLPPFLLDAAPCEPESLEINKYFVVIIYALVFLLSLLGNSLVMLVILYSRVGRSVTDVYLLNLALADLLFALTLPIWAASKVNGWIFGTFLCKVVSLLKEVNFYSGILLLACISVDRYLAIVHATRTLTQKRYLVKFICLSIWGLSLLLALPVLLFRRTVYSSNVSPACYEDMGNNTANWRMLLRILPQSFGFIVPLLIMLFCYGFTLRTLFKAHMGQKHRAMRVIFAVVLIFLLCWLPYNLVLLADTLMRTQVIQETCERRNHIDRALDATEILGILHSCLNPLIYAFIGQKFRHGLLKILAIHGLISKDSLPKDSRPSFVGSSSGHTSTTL
Experiment: [35S]-GTPγS binding assay for human CXCR2 receptor using SPA technology
Assay type: biochemical
Conditions: CHO-K1 membranes expressing human CXCR2; 100 nM IL-8 stimulation
Description: The assay is performed in duplicate in 96 well Optiplate™ microplate in a final volume of 250 μl per well. Compounds are diluted in DMSO (0.5% final concentration) and incubated in 20 mM HEPES buffer pH 7.4 containing 10 mM MgCl2, 100 mM NaCl, 1 mM EDTA plus 100 nM IL-8, 50 μM GDP and 500 μM [^35S]GTPγS per well. SPA beads (1 mg/well final concentration) were pre-mixed with the membranes (10 μg/well final concentration) in assay buffer: 20 mM HEPES buffer pH 7.4 containing 10 mM MgCl2, 100 mM NaCl, 1 mM EDTA. The bead membrane mixture is added to each well, plates are sealed and incubated at room temperature for 60 minutes. The plate is centrifuged and read on Packard TopCount™ scintillation counter, program [^35S dpm] for 1 min/well. Data are expressed as the % response to 100 nM IL-8 minus basal.

IC50: 2400 nM
SMILES: CCc1nc2nc(CSc3cccc(F)c3F)cc(O)n2n1 [Example 4]
